≈ marks a conversion by molar mass, not a printed value.
Legend:
[1] = system: T1, rat-intestinal α-glucosidase (mammalian α-glucosidase); assay: Lineweaver-Burk plot, p-nitrophenol release; format: biochemical; settings: no cinnamon extract; 0.5-4 mM PNPG, 37°C, 30 min
T1 construct: gene Mgam; crude supernatant of sonicated rat-intestinal acetone powder (Sigma); native enzymes, not purified
Excerpt: Lineweaver-Burk plot, p-nitrophenol release on rat-intestinal α-glucosidase (mammalian α-glucosidase)

[2] = biological target: T1, rat-intestinal α-glucosidase (mammalian α-glucosidase); assay: p-nitrophenol release from PNPG; format: biochemical; settings: PNPG substrate (20 μl of 1 mM added), 50 mM phosphate pH 6.8, 37°C, 5 min pre-incubation, 30 min

Km [1] [µM] | IC50 [2] [µg/mL] | SMILES
850 | – | O=[N+]([O-])c1ccc(O[C@H]2O[C@H](CO)[C@@H](O)[C@H](O)[C@H]2O)cc1 [p-Nitrophenyl-α-D-glucopyranoside]
– | 34.11 (≈ 52.8 µM) | C[C@H]1O[C@H](O[C@H]2[C@H](O)[C@@H](O)[C@@H](O[C@H]3[C@H](O)[C@@H](O)C(O)O[C@@H]3CO)O[C@@H]2CO)[C@H](O)[C@@H](O)[C@@H]1N[C@H]1C=C(CO)[C@@H](O)[C@H](O)[C@H]1O (some centres unmarked) [Acarbose]
